Experimental data: US10004739B2, “Methods for treating cancer by inhibiting FGFR3/TACC3 fusion protein” (Astellas Pharma Inc., priority 2012, dated 2018)
Like-named read-outs stand apart in the source and are kept apart here.

What was measured:
RT-112 cells = assay: Anchorage-independent proliferation of RT-112 bladder cancer cell line, spheroid plate, CellTiter-Glo; format: cell-based; details: Homo sapiens
Method: Moreover, as a positive control, a well added only with the medium was prepared. […] As a negative control, DMSO as a vehicle of the compound was added thereto at the same concentration (0.1%) at the time of adding the compound. Thereafter, the cells were cultured for 5 days at 37° C. in the presence of 5% CO2, and a reagent for cell count measurement (CellTiter-Glo™ Luminescent Cell Viability Assay; Promega Corporation) was added thereto. The resultant was stirred for 20 minutes, and the cell count was measured using a luminometer.
(§1) Moreover, the respective compounds were added such that the final concentration thereof became 100 nM, 10 nM, and 1 nM.

[1] = system: FGFR3-TACC3_v3 expression/NIH3T3 cells; assay: Anchorage-independent cell proliferation, spheroid plate, CellTiter-Glo; details: Mus musculus, NIH3T3, 96 h, read-out: growth inhibition rate (%), v3
Method: (§2) The FGFR3-TACC3_v1 expression/NIH3T3 cells were seeded in a 96-well spheroid plate (Sumilon Cell-Tight Spheroid 96U; SUMITOMO BAKELITE CO., LTD.) with D-MEM containing 10% fetal bovine serum, such that the cell count in each well became 1×10^3. Moreover, as a positive control, a well added only with the medium was prepared. […] As a negative control, DMSO as a vehicle of the compound was added thereto at the same concentration (0.1%) as set at the time of adding the compound. Thereafter, the cells were cultured for 4 days at 37° C. in the presence of 5% CO2, and a reagent for cell count measurement (CellTiter-Glo™ Luminescent Cell Viability Assay; Promega Corporation) was added thereto. The resultant was stirred for 20 minutes, and the cell count was measured using a luminometer.
as §1

[2] = system: FGFR3-TACC3_v1 expression/NIH3T3 cells; assay: as above; details: Mus musculus, NIH3T3, 96 h, read-out: growth inhibition rate (%), v1
Method: as §2, §1

[3] = system: FGFR3-TACC3_v2 expression/NIH3T3 cells; assay: as above; details: Mus musculus, NIH3T3, 96 h, read-out: growth inhibition rate (%), v2
Method: as §2, §1

[4] = system: FGFR3-TACC3_v3 (N-FLAG) fusion polypeptide; assay: In vitro kinase activity of FGFR3-TACC3_v3 (N-FLAG) fusion polypeptide (HTRF KinEASE-TK, peptide substrate); format: biochemical, human; details: ATP 100 μM
[5] = system: FGFR3-TACC3_v1 (N-FLAG) fusion polypeptide; assay: In vitro kinase activity of FGFR3-TACC3_v1 (N-FLAG) fusion polypeptide (HTRF KinEASE-TK, peptide substrate); format: biochemical, human; details: ATP 100 μM
[6] = system: FGFR3-TACC3_v2 (N-FLAG) fusion polypeptide; assay: In vitro kinase activity of FGFR3-TACC3_v2 (N-FLAG) fusion polypeptide (HTRF KinEASE-TK, peptide substrate); format: biochemical, human; details: ATP 100 μM
[7] = system: cells expressing FGFR3-TACC3 fusion gene; details: reported in Science 2012; 337:1231-5; cited from earlier work
[8] = system: cell line intrinsically expressing an EML4-ALK fusion gene; details: Clin. Cancer Res. 2008; 4275-4283; cited from earlier work
[9] = RT-112, read-out: growth inhibition rate (%), RT-112
[10] = RT-112, final concentration 1 nM, Example 30: 1×10^3 cells per well, RPMI1640 with 2 mM L-glutamine, otherwise as Example 9, read-out: growth inhibition rate (%), RT-112
[11] = RT-112, final concentration 10 nM, Example 30: 1×10^3 cells per well, RPMI1640 with 2 mM L-glutamine, otherwise as Example 9, read-out: growth inhibition rate (%), RT-112
[12] = RT-112, final concentration 100 nM, Example 30: 1×10^3 cells per well, RPMI1640 with 2 mM L-glutamine, otherwise as Example 9, read-out: growth inhibition rate (%), RT-112

| Structure (SMILES) | inhibition at 0.001 µM [1] [%] | inhibition at 0.01 µM [1] [%] | inhibition at 0.001 µM [2] [%] | inhibition at 0.01 µM [2] [%] | inhibition at 0.001 µM [3] [%] | Inhibition against peptide substrate FGFR3-TACC3 v3 ([4]; final concentration 1 nM) [%] | Inhibition against peptide substrate FGFR3-TACC3 v3 ([4]; final concentration 100 nM) [%] | Inhibition against peptide substrate FGFR3-TACC3 v1 ([5]; final concentration 10 nM) [%] | Inhibition against peptide substrate FGFR3-TACC3 v1 ([5]; final concentration 100 nM) [%] | inhibition at 0.001 µM (RT-112 cells; [10]) [%] | inhibition at 0.01 µM (RT-112 cells; [11]) [%] | Inhibition against peptide substrate FGFR3-TACC3 v2 ([6]; final concentration 1 nM) [%] | Inhibition against peptide substrate FGFR3-TACC3 v2 ([6]; final concentration 10 nM) [%] | Inhibition against peptide substrate FGFR3-TACC3 v2 ([6]; final concentration 100 nM) [%] | inhibition at 0.01 µM [3] [%] | Inhibition against peptide substrate FGFR3-TACC3 v3 ([4]; final concentration 10 nM) [%] | Inhibition against peptide substrate FGFR3-TACC3 v1 ([5]; final concentration 1 nM) [%] | further results |
| --- | --- | --- | --- | --- | --- | --- | --- | --- | --- | --- | --- | --- | --- | --- | --- | --- | --- | --- |
| COc1cc(Nc2ncc(OCc3c(F)c(OC)cc(OC)c3F)cn2)ccc1N1CCC(N2CCN(C)CC2)CC1 [Compound A, 5-[(2,6-difluoro-3,5-dimethoxybenzyl)oxy]-N-{3-methoxy-4-[4-(4-methylpiperazin-1-yl)piperidin-1-yl]phenyl}pyrimidin-2-amine] | – | – | – | – | – | – | – | – | – | – | – | – | – | – | – | – | – | inhibition at 0.001 µM (RT-112 cells; [9]): 29%; inhibition at 0.01 µM (RT-112 cells; [9]): 83%; inhibition at 0.1 µM (RT-112 cells; [9]): 90% |
| COc1cc(OC)c(F)c(COc2cnc(Nc3cnn(C[C@@H](O)CO)c3)nc2)c1F [Compound C, (2R)-3-[4-({5-[(2,6-difluoro-3,5-dimethoxybenzyl)oxy]pyrimidin-2-yl}amino)-1H-pyrazol-1-yl]propane-1,2-diol] | 3 | 24 | 5 | 44 | 0 | 41 | 96 | 79 | 95 | 21 | 72 | 22 | 73 | 95 | – | – | – | – |
| COc1cc(OC)c(F)c(COc2cnc(Nc3ccc(N4CCN(C)CC4)cc3)nc2)c1F [Compound D, 5-[(2,6-difluoro-3,5-dimethoxybenzyl)oxy]-N-[4-(4-methylpiperazin-1-yl)phenyl]pyrimidin-2-amine] | 25 | 79 | 26 | 84 | 23 | 45 | 97 | 80 | 94 | 23 | 80 | 27 | 80 | 95 | 79 | 85 | 34 | inhibition at 0.1 µM [1]: 89%; inhibition at 0.1 µM [2]: 90%; inhibition at 0.1 µM [3]: 88%; inhibition at 0.1 µM (RT-112 cells; [12]): 89% |
| COc1cc(OC)c(F)c(COc2cnc(Nc3cc(CN4CCN(C)CC4)n(C)n3)nc2)c1F [Compound E, 5-[(2,6-difluoro-3,5-dimethoxybenzyl)oxy]-N-{1-methyl-5-[(4-methylpiperazin-1-yl)methyl]-1H-pyrazol-3-yl}pyrimidin-2-amine] | 6 | 20 | 7 | 28 | 11 | 30 | 91 | 40 | 86 | 5 | 33 | 6 | 25 | 78 | 29 | 55 | 7 | inhibition at 0.1 µM [1]: 81%; inhibition at 0.1 µM [2]: 84%; inhibition at 0.1 µM [3]: 79%; inhibition at 0.1 µM (RT-112 cells; [12]): 81% |
| CN1CCN(c2ccc3nc(-c4c(N)c5c(F)cccc5[nH]c4=O)[nH]c3c2)CC1 [Dovitinib, 4-amino-5-fluoro-3-[6-(4-methylpiperazin-1-yl)-1H-benzo[d]imidazol-2-yl]quinoline-2(1H)-one, reference compound] | – | – | – | – | – | – | – | – | – | – | – | – | – | – | – | – | – | inhibition at 0.1 µM (RT-112 cells; RT-112, 120 h, final concentration 100 nM, Example 16: 2×10^3 cells per well, 5 days, read-out: growth inhibition rate (%), RT-112): 80% |
| C[C@@H](Oc1ccc2[nH]nc(/C=C/c3cnn(CCO)c3)c2c1)c1c(Cl)cncc1Cl [LY2874455, (R)-(E)-2-{4-[2-{5-[1-(3,5-dichloropyridin-4-yl)ethoxy]-1H-indazol-3-yl}vinyl]-1H-pyrazol-1-yl}ethanol, reference compound] | – | 89 | – | 88 | – | 57 | – | 77 | – | – | – | 64 | 87 | – | 90 | 83 | 46 | Inhibition against peptide substrate FGFR3-TACC3 v3 ([4]; final concentration 0.1 nM): 3%; Inhibition against peptide substrate FGFR3-TACC3 v1 ([5]; final concentration 0.1 nM): 12%; Inhibition against peptide substrate FGFR3-TACC3 v2 ([6]; final concentration 0.1 nM): 15% |
| CCN(CC)CCCCNc1ncc2cc(-c3cc(OC)cc(OC)c3)c(NC(=O)NC(C)(C)C)nc2n1 [PD173074] | – | – | – | – | – | – | – | – | – | – | – | – | – | – | – | – | – | proliferation of cells expressing FGFR3-TACC3 fusion gene [7]: inhibited the proliferation |
| COc1cc(N2CCC(N3CCN(C)CC3)CC2)ccc1Nc1ncc(Cl)c(Nc2ccccc2S(=O)(=O)C(C)C)n1 [TAE684] | – | – | – | – | – | – | – | – | – | – | – | – | – | – | – | – | – | growth of the cell [8]: growth of the cell is inhibited; phosphorylation of ALK [8]: phosphorylation is inhibited |
